Data from patent publication US5977097A, “1-methylcarbapenem derivatives” (Sankyo Company Limited, priority 1996, dated 1999).
≈ marks a conversion by molar mass, not a printed value.

Experiments:
[1] = Pharmacokinetics such as half-life in blood; details: in vivo
[2] = system: Pseudomonas aeruginosa No. 7; experiment: In vitro antibacterial activity by agar plate dilution method (Test 1); type: cell-based; details: Mueller-Hinton II agar, read-out: Minimum Growth Inhibitory Concentration (MIC)
Description: (§1) Antibacterial activity was measured by the agar plate dilution method, whereby the minimum growth inhibitory concentration (MIC: μg/ml) against various pathogenic bacteria was determined. The test results on the antibacterial activity of the compounds of the invention of Examples 3 and 7 against Staphylococcus aureus […], Escherichia coli NIHJ and Pseudomonas aeruginosa No. 7 are shown in Table 2. Incidentally, Compounds A and B used for comparison are compounds of Example 3 in Japanese Patent Application Kokai No. Hei 5-310740 [compounds represented by the formula (I) of the present invention, wherein R^1, R^2 and R^3 represent hydrogen atoms]. Compound A has the R configuration at the binding position of the aminomethyl group. Compound B has the S configuration at the binding position of the aminomethyl group. The medium used for the measurement was Mueller-Hinton II agar (MHA, Becton Dikinson Microbiology Systems).

[3] = system: Escherichia coli NIHJ; experiment: as above; type: cell-based; details: Mueller-Hinton II agar, read-out: Minimum Growth Inhibitory Concentration (MIC)
Description: as §1

[4] = system: Staphylococcus aureus 209P; experiment: as above; type: cell-based; details: Mueller-Hinton II agar, read-out: Minimum Growth Inhibitory Concentration (MIC)
Description: as §1

[5] = Nephrotoxicity; type: in vivo; details: rabbits, intravenous, 200 mg/kg
Description: When the compounds of the present invention were administered to rabbits, the incorporation in to the renal cortex is relatively low.

[6] = system: Pseudomonas aeruginosa; experiment: Antibacterial activity against Pseudomonas aeruginosa compared with aminomethyl compounds A and B; type: cell-based
Description: as §1, with “culture of” for “medium used for”, “bacterial strain to be tested” for “measurement”, “inoculated intraperitoneally to groups of mice (SPF, DDY, male), each group consisting of 7 animals. A solution of the test compound was subcutaneously administered twice in total to the mice, once immediately and once four hours after the inoculation. From the survival ratio five days after infection, the 50% effective dose (ED50 : mg/kg) was determined by the Probit method and the single dose of test compound was indicated.” for “Mueller-Hinton II agar (MHA, Becton Dikinson Microbiology Systems).”

[7] = system: Escherichia coli NIHJ; experiment: In vitro antibacterial activity (Test 2); type: cell-based; details: Nutrient Agar Eiken, read-out: Minimum Growth Inhibitory Concentration (MIC)
Description: (§2) Antibacterial activity was measured by the agar plate dilution method, whereby the minimum growth inhibitory concentration (MIC: μg/ml) against various pathogenic bacteria was determined. The test results on the antibacterial activity of the compounds of the invention of Examples 3 and 7 against Staphylococcus aureus 209P, Escherichia coli NIHJ and Pseudomonas aeruginosa No. 7 are shown in Table 2.
(§3) The antibacterial activities of the compounds of the invention of Examples 3 and 7 and meropenem against Staphylococcus aureus 209P, Escherichia coli NIHJ and Pseudomonas aeruginosa 3719 (strain resistant to meropenem) are shown in Table 3.
(§4) The medium used for the measurement was Nutrient Agar Eiken (Eiken Chemicals Co., Ltd.).

[8] = system: Pseudomonas aeruginosa 3719 (strain resistant to meropenem); experiment: In vitro antibacterial activity (Test 2); type: cell-based; details: Pseudomonas aeruginosa 3719 (resistant to meropenem); Nutrient Agar Eiken; read-out: Minimum Growth Inhibitory Concentration (MIC)
Description: as §2, §3, §4

[9] = system: Staphylococcus aureus 209P; experiment: In vitro antibacterial activity (Test 2); type: cell-based; details: Nutrient Agar Eiken, read-out: Minimum Growth Inhibitory Concentration (MIC)
Description: as §2, §3, §4

[10] = system: Pseudomonas aeruginosa 1008; experiment: In vivo antibacterial activity, treatment of infected mice (Test 3); set-up: species or system mice (SPF, DDY, male); details: Pseudomonas aeruginosa, 1008, sc, 120 h, intraperitoneal infection, subcutaneous twice (immediately and 4 h after inoculation), survival at five days, expressed as single dose, read-out: Treatment against infections, 50% effective dose (ED50)
Description: The culture of the bacterial strain to be tested was inoculated intraperitoneally to groups of mice (SPF, DDY, male), each group consisting of 7 animals. A solution of the test compound was subcutaneously administered twice in total to the mice, once immediately and once four hours after the inoculation. From the survival ratio five days after infection, the 50% effective dose (ED50 : mg/kg) was determined by the Probit method and the single dose of test compound was indicated. The test results of the compound of Example 3, compound A and Meropenem against Pseudomonas aeruginosa 1008 are shown in Table 4. Incidentally, Compound A is as described above.

Compound	pharmacokinetic properties such as half-life in blood [1]	MIC [2] [µg/mL]	MIC [3] [µg/mL]	MIC [4] [µg/mL]	nephrotoxicity [5]	activity against Pseudomonas aeruginosa [6]	MIC [7] [µg/mL]	MIC [8] [µg/mL]	MIC [9] [µg/mL]	ED50 [10] [mg/kg]
CNC[C@H]1CCN(C(=O)[C@@H]2C[C@H](SC3=C(C(=O)O)N4C(=O)[C@H]([C@@H](C)O)[C@H]4[C@H]3C)CN2)C1 [Example 3, (1R,5S,6S)-6-[(1R)-1-Hydroxyethyl]-1-methyl-2-[(2S,4S)-2-[(3R)-3-methylaminomethylpyrrolidin-1-ylcarbonyl]pyrrolidin-4-ylthio]-1-carbapen-2-em-3-carboxylic acid]	excellent pharmacokinetic properties such as half-life in blood	0.05 (≈ 0.11 µM)	0.02 (≈ 0.0442 µM)	0.02 (≈ 0.0442 µM)	did not exhibit nephrotoxicity	superior activity against Pseudomonas aeruginosa	≤ 0.01	0.2 (≈ 0.442 µM)	≤ 0.01	0.22
C[C@@H](O)[C@H]1C(=O)N2C(C(=O)O)=C(S[C@@H]3CN[C@H](C(=O)N4CC[C@H](CNC(=N)N)C4)C3)[C@H](C)[C@H]12 [Example 7, (1R,5S,6S)-2-[(2S,4S)-2-[(3R)-3-Guanidinomethylpyrrolidin-1-ylcarbonyl]pyrrolidin-4-ylthio]-6-[(1R)-1-hydroxyethyl]-1-methyl-1-carbapen-2-em-3-carboxylic acid]	–	0.05 (≈ 0.104 µM)	0.02 (≈ 0.0416 µM)	0.02 (≈ 0.0416 µM)	–	–	≤ 0.01	0.1 (≈ 0.208 µM)	≤ 0.01	–
C[C@@H](O)[C@H]1C(=O)N2C(C(=O)O)=C(S[C@@H]3CN[C@H](C(=O)N(C)C)C3)[C@H](C)[C@H]12 [Meropenem, meropenem, reference compound]	–	–	–	–	–	–	≤ 0.01	6.2 (≈ 16.2 µM)	0.02 (≈ 0.0522 µM)	0.72
